Tests used:
Aspergillus fumigatus = test: Antifungal activity against Aspergillus fumigatus ATCC 204305 assessed as inhibition of fungal growth by broth microdilution method; assay type: functional
[1] = Inhibition of quorum sensing system in Chromobacterium violaceum wild type 85 assessed as reduction in pigment production incubated for 24 to 48 hrs; settings: time 24-48 hrs
Escherichia coli [2] = test: Antibacterial activity against Escherichia coli ATCC 25922 assessed as inhibition of bacterial growth by broth microdilution method; assay type: functional
Staphylococcus aureus [3] = test: Antibacterial activity against methicillin and ofloxacin-resistant Staphylococcus aureus 272123 assessed as inhibition of bacterial growth by broth microdilution method; assay type: functional
Enterococcus faecalis [4] = test: Antibacterial activity against Enterococcus faecalis ATCC 29212 assessed as inhibition of bacterial growth by broth microdilution method; assay type: functional
[5] = Inhibition of quorum sensing system in Chromobacterium violaceum CV026 assessed as reduction in pigment production co-cultured with Sphingomonas paucimobilis Ezf 10-17 for 24 to 48 hrs; settings: time 24-48 hrs
Enterococcus faecalis [6] = test: Antimicrobial adjuvant activity against Enterococcus faecalis B3/101 assessed as potentiation of vancomycin-induced antibacterial activity by measuring fold reduction in vancomycin MIC at 64 ug/ml by broth microdilution method; assay type: functional; settings: dose 64 µg/ml
Pseudomonas aeruginosa = test: Antibacterial activity against Pseudomonas aeruginosa ATCC 27853 assessed as inhibition of bacterial growth by broth microdilution method; assay type: functional
Trichophyton rubrum = test: Antifungal activity against Trichophyton rubrum FF5 assessed as inhibition of fungal growth by broth microdilution method; assay type: functional
[7] = Inhibition of Multidrug resistance efflux pump in Staphylococcus aureus 272123 assessed as relative fluorescence index using ethidium bromide as substrate at 50 uM by fluorescence based analysis
Staphylococcus aureus [8] = test: Antibacterial activity against Staphylococcus aureus ATCC 25923 assessed as inhibition of bacterial growth by broth microdilution method; assay type: functional
Staphylococcus aureus [9] = test: Inhibition of biofilm formation in Staphylococcus aureus 272123 at 100 uM incubated for 48 hrs by crystal violet staining based analysis; assay type: functional
[10] = system: Salmonella enterica subsp. enterica serovar Typhimurium; test: Inhibition of Multidrug resistance efflux pump in Salmonella enterica serovar typhimurium SL1344 (SE03) assessed as relative fluorescence index using ethidium bromide as substrate at 50 uM by fluorescence based analysis
Serratia marcescens = test: Inhibition of quorum sensing system in Serratia marcescens AS-1 assessed as reduction in pigment production incubated for 24 to 48 hrs; settings: time 24-48 hrs
Salmonella typhimurium = test: Antibacterial activity against Salmonella enterica serovar typhimurium SL1344 (SE03) assessed as inhibition of bacterial growth by broth microdilution method; assay type: functional, Salmonella enterica subsp. enterica serovar Typhimurium
Candida albicans = test: Antifungal activity against Candidia albicans ATCC 10231 assessed as inhibition of fungal growth by broth microdilution method; assay type: functional
Staphylococcus aureus [11] = test: Inhibition of biofilm formation in Staphylococcus aureus ATCC 25923 at 100 uM incubated for 48 hrs by crystal violet staining based analysis; assay type: functional
Escherichia coli [12] = test: Antimicrobial adjuvant activity against ESBL-producing Escherichia coli SA/2 assessed as potentiation of cefotaxime-induced antibacterial activity by measuring fold reduction in cefotaxime MIC at 64 ug/ml by broth microdilution method; assay type: functional; settings: dose 64 µg/ml

| SMILES | MIC (Aspergillus fumigatus) [µg/mL] | Activity [1] [mm] | MIC (Escherichia coli [2]) [µg/mL] | MIC (Staphylococcus aureus [3]) [µg/mL] | MIC (Enterococcus faecalis [4]) [µg/mL] | Activity [5] [mm] | fold change (FC) (Enterococcus faecalis [6]) | MIC (Pseudomonas aeruginosa) [µg/mL] | MIC (Trichophyton rubrum) [µg/mL] | RFU [7] | MIC (Staphylococcus aureus [8]) [µg/mL] | inhibition at 100 µM (Staphylococcus aureus [9]) [%] | RFU [10] | Activity (Serratia marcescens) [mm] | MIC (Salmonella typhimurium) [µg/mL] | MIC (Candida albicans) [µg/mL] | inhibition at 100 µM (Staphylococcus aureus [11]) [%] | fold change (FC) (Escherichia coli [12]) |
| --- | --- | --- | --- | --- | --- | --- | --- | --- | --- | --- | --- | --- | --- | --- | --- | --- | --- | --- |
| COc1ccccc1/C=C1\CCC/C(=C\c2ccccc2OC)C1=O | > 128 | 0 | > 64 | > 64 | > 64 | 0 | 2 | > 64 | > 128 | 0.48 | > 64 | 65.9 | -0.31 | 0 | > 64 | > 128 | 0 |  |
| COc1cccc(/C=C2\COC/C(=C\c3cccc(OC)c3)C2=O)c1 | > 128 |  | > 64 | > 64 | > 64 |  | 4 | > 64 | > 128 | 0.17 | > 64 |  | 0.05 |  | > 64 | > 128 |  |  |
| COc1ccc(/C=C2\COC/C(=C\c3ccc(OC)c(OC)c3)C2=O)cc1OC | > 128 | 0 | > 64 | > 64 | > 64 | 0 |  | > 64 | > 128 | 2.47 | > 64 | 0 | -0.02 | 0 | > 64 | > 128 | 0 | 2 |
| O=C1/C(=C/c2ccc(Cl)cc2Cl)COC/C1=C\c1ccc(Cl)cc1Cl | > 128 |  | > 64 | > 64 | > 64 |  |  | > 64 | > 128 | -0.25 | > 64 |  | -0.13 |  | > 64 | > 128 |  | 2 |
| O=C1/C(=C/c2ccc(F)cc2)COC/C1=C\c1ccc(F)cc1 | > 128 |  | > 64 | > 64 | > 64 |  |  | > 64 | > 128 | -0.11 | > 64 |  | 0.17 |  | > 64 | > 128 |  | 8 |
| CC(CN1c2ccccc2Sc2ccccc21)N(C)C (stereo not given) |  | 40 |  |  |  | 41 |  |  |  |  |  |  |  | 18 |  |  |  |  |
| Cc1ccccc1/C=C1\COC/C(=C\c2ccccc2C)C1=O | > 128 |  | > 64 | > 64 | > 64 |  | 2 | > 64 | > 128 | -0.23 | > 64 |  | -0.08 |  | > 64 | > 128 |  |  |
| COc1ccccc1/C=C1\CSC/C(=C\c2ccccc2OC)C1=O | > 128 |  | > 64 | > 64 | > 64 |  | 4 | > 64 | > 128 | 0.01 | > 64 |  | 0.01 |  | > 64 | > 128 |  |  |
| O=C1/C(=C/c2ccccc2F)COC/C1=C\c1ccccc1F | > 128 |  | > 64 | > 64 | > 64 |  |  | > 64 | > 128 | -0.08 | > 64 |  | -0.04 |  | > 64 | > 128 |  | 2 |
| COc1cc(/C=C2\COC/C(=C\c3cc(OC)cc(OC)c3)C2=O)cc(OC)c1 | > 128 |  | > 64 | > 64 | > 64 |  | 4 | > 64 | > 128 | 0.25 | > 64 |  | 0.09 |  | > 64 | > 128 |  |  |
| O=C1/C(=C/c2cccc(F)c2)COC/C1=C\c1cccc(F)c1 | > 128 |  | > 64 | > 64 | > 64 |  | 2 | > 64 | > 128 | -0.16 | > 64 |  | 0.04 |  | > 64 | > 128 |  |  |
| COc1ccccc1/C=C1\CC/C(=C\c2ccccc2OC)C1=O | > 128 |  | > 64 | > 64 | > 64 |  | 2 | > 64 | > 128 | -0.39 | > 64 |  | 0.15 |  | > 64 | > 128 |  |  |

Source: ChEMBL document CHEMBL5143672, “New diarylpentanoids and chalcones as potential antimicrobial adjuvants” (2022)
